Laboratory results: a melting point compilation (Tetko et al.; mined from patent text by program, amines drawn as free bases though some values may be those of a salt)

Row | SMILES | melting point
1 | CC(C)COCCOc1ccc(OCC(O)CNCCNC(=O)N(C)C)cc1 (stereo not given) | 75 °C
2 | CCN(c1ccc(C(=O)c2ccccc2)cc1[N+](=O)[O-])C1CCCCC1 | 91.5 to 92 °C
3 | Cc1[nH]c(C=O)c(C)c1CCC(=O)O | 145 to 147 °C
4 | N#CC1CCc2cc(C(N)=O)ccc2C1 (stereo not given) | 180 to 182 °C
5 | O=C1C(=O)N(Cc2ccc(Nc3ncccn3)cc2)CCN1Cc1ccc(Nc2ncccn2)cc1 | 226 to 228 °C
6 | COc1ccc(-c2cc3c(Br)c(OC)ccc3o2)cc1 | 115 to 117 °C
7 | O=C(NC(CS)Cc1ccccc1)N1CCCC1 (single isomer, unassigned; (+)) | 92 to 94 °C
8 | CCCC1(C2CCCC2)Cc2cc(OCCCC(=O)O)c(Cl)c(Cl)c2C1=O (stereo not given) | 140 to 141 °C
9 | COc1cc(C(=O)N(C(C)C)C2CCCCC2)ccc1CN(C(=O)CCl)c1cccnc1O | 127 to 129 °C
10 | CCOC(=O)CC(=O)c1ccc(Br)cc1Cl | 34 °C
11 | CC(=O)OC1CCC2(C)C(CCC3C2CCC2(C)C3CCC2C(C)(O)C#N)C1 (stereo not given) | 168 to 178 °C
12 | NC(=S)c1nccc(F)c1Cn1ccnc1 | 154 to 156 °C
13 | CC(=O)c1ccc(OCCCC(=O)O)c(C)c1 | 114 to 116 °C
14 | Clc1nc(Cl)c(-c2ccccc2)c(-c2ccccc2)n1 | 144 to 146 °C
15 | OCC1CCN(CC(O)c2ccc(F)cc2)CC1 (stereo not given) | 113 °C
16 | O=C(Nc1ccc(C(=O)Oc2ccccc2)c(Cl)c1)NS(=O)(=O)c1ccccc1 | 183 to 185 °C
17 | COC(=O)c1ccc(C(=O)NS(=O)(=O)c2ccc(CCNC(=O)CCC(C)C)cc2)cn1 | 204 to 206 °C
18 | ClCc1c(Cl)c(Cl)c(Cl)c(Cl)c1CCl | 83 to 84 °C
19 | O=[N+]([O-])c1cc(Cl)ccc1NS(=O)(=O)c1ccc(Cl)cc1 | 122 to 123 °C
20 | Cc1nc(Cc2ccc(NC(=O)/C=C/c3cnn(C)c3-c3ccc(F)cc3)cc2)sc1C | 210 to 211 °C
21 | CCCN(CCC)CC(=O)OC1CC2(C)C(C(C)=O)CCC2C2CCC3CC(O)CCC3(C)C12 (stereo not given) | 116 to 118 °C
22 | CSc1c(C=NO)c(=O)n(C)c(=O)n1C | 165 °C
23 | COc1cc(C(Cl)(Cl)Cl)cc(OC)n1 | 71 to 73 °C
24 | CCOC(=O)c1ccc(C(=O)CN2CCN(c3ccncc3)CC2)cc1 | 147 to 149 °C
25 | CCCCOCCOc1ccc(-c2ccc3c(c2)C=C(C(=O)Nc2ccc([C@H](O)c4ccccn4)cc2)CCN3C(=O)C(F)(F)F)cc1 | 100 to 102 °C
26 | CN(C)c1ccc(-c2nnc(N3CCC(O)CC3)nc2-c2ccc(N(C)C)cc2)cc1 | 186 to 188 °C

Further lines, results first:

Row | melting point | SMILES
27 | 164 to 165 °C | CCCCc1nc2c(N)nc3ccccc3c2n1CCCCS(C)(=O)=O
28 | 137 to 139 °C | CC(=NOCCOc1ccc(CC2SC(=O)NC2=O)cc1)c1ccc(-c2ccc3c(c2)OCO3)cc1 (stereo not given)
29 | 209 to 210 °C | C=CCC1(Cc2nc[nH]c2C)CCc2c(C)c3ccccc3n2C1=O (stereo not given)
30 | 64 to 65 °C | CCCCC1CCCC2=C1C(=O)c1ccccc1C2=O (stereo not given)
31 | 106 to 108 °C | CCOC(=O)c1cn2c3c(ccc(C)c3c1=O)CCC2C (stereo not given)
32 | 94 to 95 °C | Cn1ncc(N(CCCO)Cc2ccccc2)c(Cl)c1=O
33 | 191 to 192 °C | N#CCc1ccc(Nc2nc(OCC3CCCCC3)c3[nH]cnc3n2)cc1
34 | 232 to 235 °C | Cc1ccsc1C(=O)Nc1ccc(C(=O)N2Cc3cccn3Cc3ccccc32)cc1
35 | 139 to 140 °C | CC(C)(C)OC(=O)NCCNC(=O)c1ncsc1-c1ccccc1
36 | 214 to 216 °C | O=C(NCc1ccc(Cl)cc1)c1cnc2c(CNCc3ccccc3)cc(CN3CCOCC3)cc2c1O
37 | 55 to 58 °C | O=C(O)C1Cc2ccccc2CN1C(=O)CCS (stereo not given)
38 | 174 °C | Nc1ccc(-c2cc(OCC(=O)N3CCOCC3)c3ccccc3n2)cc1
39 | 183 °C | CCOC(=O)C1=C(N)NC(c2ccccc2)=C(C(=O)O)C1c1ccccc1 (stereo not given)
40 | 277 to 278 °C | Cc1ccc(N2CCCN(c3cc[nH]c(=S)c3C#N)CC2)cc1[N+](=O)[O-]
